Results as given in ChEMBL document CHEMBL2407047, “Molecular design, synthesis and biological evaluation of 1,4-dihydro-4-oxoquinoline ribonucleosides as TcGAPDH inhibitors with trypanocidal activity” (Bioorg Med Chem Lett, 2013).
Activity calls are given as the source filed them.

What was measured:
[1] = system: Saccharomyces cerevisiae; assay: Effect on Saccharomyces cerevisiae TDH3 up to 500 uM
[2] = system: Saccharomyces cerevisiae; assay: Effect on Saccharomyces cerevisiae TDH2 up to 500 uM
[3] = system: Saccharomyces cerevisiae; assay: Effect on Saccharomyces cerevisiae TDH1 up to 500 uM

Measured: Activity

O=C(O)c1cn([C@@H]2O[C@H](CO)[C@@H](O)[C@H]2O)c2ccc(Br)cc2c1=O
inactive: all assays above

Cc1ccc2c(c1)c(=O)c(C(=O)O)cn2[C@@H]1O[C@H](CO)[C@@H](O)[C@H]1O
inactive: all assays above

COc1ccc2c(c1)c(=O)c(C(=O)O)cn2[C@@H]1O[C@H](CO)[C@@H](O)[C@H]1O
inactive: all assays above

O=C(O)c1cn([C@@H]2O[C@H](CO)[C@@H](O)[C@H]2O)c2ccc(Cl)cc2c1=O
inactive: all assays above

COc1ccc2c(=O)c(C(=O)O)cn([C@@H]3O[C@H](CO)[C@@H](O)[C@H]3O)c2c1
inactive: all assays above

O=C(O)c1cn([C@@H]2O[C@H](CO)[C@@H](O)[C@H]2O)c2cc(Br)ccc2c1=O
inactive: all assays above

Cc1ccc2c(=O)c(C(=O)O)cn([C@@H]3O[C@H](CO)[C@@H](O)[C@H]3O)c2c1
inactive: all assays above
